Columns and labels:
Format in all cases: in vivo
kochia (Bassia scoparia) [1] = assay: Test C postemergence, visual plant response rating
Procedure, shortened: (§1)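 Compounds in a non-phytotoxic solvent with surfactant were applied as a directed soil spray preemergence or to 2–10 cm, one- to two-leaf plants postemergence, in loam–sand soil. After about 10 d in a greenhouse, injury was visually rated against untreated controls on a 0–100 scale (100 = complete control).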

[2] = test system: pigweed (Amaranthus retroflexus); assay: Test C postemergence, visual plant response rating
Procedure, shortened: as §1

[3] = test system: blackgrass (Alopecurus myosuroides); assay: Test C postemergence, visual plant response rating
Procedure, shortened: as §1

[4] = test system: ragweed (common ragweed, Ambrosia artemisiifolia); assay: Test C postemergence, visual plant response rating
Procedure, shortened: as §1

[5] = test system: foxtail, giant (giant foxtail, Setaria faberi); assay: Test C postemergence, visual plant response rating
Procedure, shortened: as §1

[6] = test system: galium (catchweed bedstraw, Galium aparine); assay: Test C postemergence, visual plant response rating
Procedure, shortened: as §1

[7] = test system: Italian ryegrass (Lolium mutiflorum); assay: Test C postemergence, visual plant response rating
Procedure, shortened: as §1

corn (Zea mays) = assay: Test C postemergence, visual plant response rating
Procedure, shortened: as §1

[8] = test system: barnyardgrass (Echinochloa crus-galli); assay: Test C postemergence, visual plant response rating
Procedure, shortened: as §1

[9] = test system: wheat (Triticum aestivum); assay: Test C postemergence, visual plant response rating
Procedure, shortened: as §1

[10] = test system: sedge umbrella (small-flower umbrella sedge, Cyperus difformis); assay: Test D flooded paddy test, visual plant response rating; settings: 250 g ai/ha, scale 0 to 100 (0 no effect, 100 complete control), 13 to 15 d
Procedure, shortened: (§2)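 2-leaf plants, flooded 3 cm, cpd into paddy water; greenhouse 13–15 d; visual rating vs controls, 0 = no effect, 100 = complete control; dash = no result.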

rice (Oryza sativa) = assay: as above; settings: 250 g ai/ha, scale 0 to 100 (0 no effect, 100 complete control), 13 to 15 d
Procedure, shortened: as §2

[11] = test system: barnyardgrass (Echinochloa crus-galli); assay: as above; settings: 250 g ai/ha, scale 0 to 100 (0 no effect, 100 complete control), 13 to 15 d
Procedure, shortened: as §2

[12] = test system: duck salad (Heteranthera limosa); assay: as above; settings: 250 g ai/ha, scale 0 to 100 (0 no effect, 100 complete control), 13 to 15 d
Procedure, shortened: as §2

kochia (Bassia scoparia) [13] = assay: Test C preemergence, visual plant response rating; settings: Test C, 0 is no effect, 100 is complete control
Procedure, shortened: as §1

[14] = test system: pigweed (Amaranthus retroflexus); assay: Test C preemergence, visual plant response rating; settings: Test C, 0 is no effect, 100 is complete control
Procedure, shortened: as §1

[15] = test system: ragweed (common ragweed, Ambrosia artemisiifolia); assay: Test C preemergence, visual plant response rating; settings: Test C, 0 is no effect, 100 is complete control
Procedure, shortened: as §1

[16] = test system: foxtail, giant (giant foxtail, Setaria faberi); assay: Test C preemergence, visual plant response rating; settings: Test C, 0 is no effect, 100 is complete control
Procedure, shortened: as §1

[17] = test system: Italian ryegrass (Lolium mutiflorum); assay: Test C preemergence, visual plant response rating; settings: Test C, 0 is no effect, 100 is complete control
Procedure, shortened: as §1

[18] = test system: barnyardgrass (Echinochloa crus-galli); assay: Test C preemergence, visual plant response rating; settings: Test C, 0 is no effect, 100 is complete control
Procedure, shortened: as §1

[19] = Test C, postemergence, 125 g ai/ha

Row | Structure (SMILES) | Kochia plant response rating (0 to 100 scale) (kochia (Bassia scoparia) [1]; Postemergence, 31 g ai/ha) | Kochia plant response rating (0 to 100 scale) (kochia (Bassia scoparia) [1]; [19]) | Pigweed plant response rating (0 to 100 scale) ([2]; Postemergence, 31 g ai/ha) | Pigweed plant response rating (0 to 100 scale) [2, 19] | Blackgrass plant response rating (0 to 100 scale) ([3]; Postemergence, 31 g ai/ha) | Blackgrass plant response rating (0 to 100 scale) [3, 19] | Ragweed plant response rating (0 to 100 scale) ([4]; Postemergence, 31 g ai/ha) | Ragweed plant response rating (0 to 100 scale) [4, 19] | Foxtail, Giant plant response rating (0 to 100 scale) ([5]; Postemergence, 31 g ai/ha) | Foxtail, Giant plant response rating (0 to 100 scale) [5, 19] | Galium plant response rating (0 to 100 scale) ([6]; Postemergence, 31 g ai/ha) | Galium plant response rating (0 to 100 scale) [6, 19] | Ryegrass, Italian plant response rating (0 to 100 scale) ([7]; Postemergence, 31 g ai/ha) | Ryegrass, Italian plant response rating (0 to 100 scale) [7, 19] | Corn plant response rating (0 to 100 scale) (corn (Zea mays); Postemergence, 31 g ai/ha) | Corn plant response rating (0 to 100 scale) (corn (Zea mays); [19]) | Barnyardgrass plant response rating (0 to 100 scale) ([8]; Postemergence, 31 g ai/ha) | Barnyardgrass plant response rating (0 to 100 scale) [8, 19] | Wheat plant response rating (0 to 100 scale) ([9]; Postemergence, 31 g ai/ha) | Wheat plant response rating (0 to 100 scale) [9, 19] | further results
1 | CO/N=C(\c1cccc(/C=C/Cl)c1)c1c(O)c(C)nn(C)c1=O [Compound 286] | 10 | 30 | 20 | 50 | 20 | 0 | 30 | 50 | 0 | 20 | 50 | 60 | 0 | 0 | 0 | 0 | 0 | 30 | 30 | 30 | Plant response rating, Sedge, Umbrella (Flood) [10]: 0; Plant response rating, Rice (Flood) (rice (Oryza sativa)): 0; Plant response rating, Barnyardgrass (Flood) [11]: 0; Plant response rating, Ducksalad (Flood) [12]: 0; Kochia plant response rating (0 to 100 scale) (kochia (Bassia scoparia) [13]; 31 g ai/ha): 0; Kochia plant response rating (0 to 100 scale) (kochia (Bassia scoparia) [13]; 125 g ai/ha): 0; Pigweed plant response rating (0 to 100 scale) ([14]; 31 g ai/ha): 0; Pigweed plant response rating (0 to 100 scale) ([14]; 125 g ai/ha): 10; Ragweed plant response rating (0 to 100 scale) ([15]; 31 g ai/ha): 0; Ragweed plant response rating (0 to 100 scale) ([15]; 125 g ai/ha): 20; Foxtail, Giant plant response rating (0 to 100 scale) ([16]; 31 g ai/ha): 0; Foxtail, Giant plant response rating (0 to 100 scale) ([16]; 125 g ai/ha): 50; Ryegrass, Italian plant response rating (0 to 100 scale) ([17]; 31 g ai/ha): 0; Ryegrass, Italian plant response rating (0 to 100 scale) ([17]; 125 g ai/ha): 10; Barnyardgrass plant response rating (0 to 100 scale) ([18]; 31 g ai/ha): 60; Barnyardgrass plant response rating (0 to 100 scale) ([18]; 125 g ai/ha): 90
2 | CO/N=C(/c1cccc(/C=C\Cl)c1)c1c(O)c(C)nn(C)c1=O [Compound 287] | 0 | 10 | 10 | 20 | 10 | 30 | 20 | 50 | 10 | 70 | 50 | 70 | 20 | 80 | 0 | 10 | 0 | 60 | 0 | 0 | Plant response rating, Sedge, Umbrella (Flood) [10]: 0; Plant response rating, Rice (Flood) (rice (Oryza sativa)): 0; Plant response rating, Barnyardgrass (Flood) [11]: 0; Plant response rating, Ducksalad (Flood) [12]: 0; Kochia plant response rating (0 to 100 scale) (kochia (Bassia scoparia) [13]; 31 g ai/ha): 0; Kochia plant response rating (0 to 100 scale) (kochia (Bassia scoparia) [13]; 125 g ai/ha): 0; Pigweed plant response rating (0 to 100 scale) ([14]; 31 g ai/ha): 0; Pigweed plant response rating (0 to 100 scale) ([14]; 125 g ai/ha): 0; Ragweed plant response rating (0 to 100 scale) ([15]; 31 g ai/ha): 0; Ragweed plant response rating (0 to 100 scale) ([15]; 125 g ai/ha): 20; Foxtail, Giant plant response rating (0 to 100 scale) ([16]; 31 g ai/ha): 10; Foxtail, Giant plant response rating (0 to 100 scale) ([16]; 125 g ai/ha): 40; Ryegrass, Italian plant response rating (0 to 100 scale) ([17]; 31 g ai/ha): 50; Ryegrass, Italian plant response rating (0 to 100 scale) ([17]; 125 g ai/ha): 90; Barnyardgrass plant response rating (0 to 100 scale) ([18]; 31 g ai/ha): 40; Barnyardgrass plant response rating (0 to 100 scale) ([18]; 125 g ai/ha): 90
3 | CO/N=C(\c1cccc(/C=C\Cl)c1)c1c(O)c(C)nn(C)c1=O [Compound 288] | 10 | 30 | 0 | 30 | 40 | 40 | 30 | 60 | 80 | 90 | 60 | 80 | 40 | 100 | 10 | 20 | 70 | 100 | 0 | 0 | Plant response rating, Sedge, Umbrella (Flood) [10]: 0; Plant response rating, Rice (Flood) (rice (Oryza sativa)): 0; Plant response rating, Barnyardgrass (Flood) [11]: 0; Plant response rating, Ducksalad (Flood) [12]: 0; Kochia plant response rating (0 to 100 scale) (kochia (Bassia scoparia) [13]; 31 g ai/ha): 0; Kochia plant response rating (0 to 100 scale) (kochia (Bassia scoparia) [13]; 125 g ai/ha): 30; Pigweed plant response rating (0 to 100 scale) ([14]; 31 g ai/ha): 0; Pigweed plant response rating (0 to 100 scale) ([14]; 125 g ai/ha): 0; Ragweed plant response rating (0 to 100 scale) ([15]; 31 g ai/ha): 10; Ragweed plant response rating (0 to 100 scale) ([15]; 125 g ai/ha): 20; Foxtail, Giant plant response rating (0 to 100 scale) ([16]; 31 g ai/ha): 40; Foxtail, Giant plant response rating (0 to 100 scale) ([16]; 125 g ai/ha): 100; Ryegrass, Italian plant response rating (0 to 100 scale) ([17]; 31 g ai/ha): 70; Ryegrass, Italian plant response rating (0 to 100 scale) ([17]; 125 g ai/ha): 100; Barnyardgrass plant response rating (0 to 100 scale) ([18]; 31 g ai/ha): 70; Barnyardgrass plant response rating (0 to 100 scale) ([18]; 125 g ai/ha): 100
4 | CO/N=C(/c1cc(Cl)c(F)c(Cl)c1)c1c(O)c(C)nn(C)c1=O [Compound 289] | 20 | 40 | 0 | 0 | 0 | 0 | 40 | 90 | 0 | 0 | 70 | 100 | 0 | 60 | 0 | 0 | 0 | 10 | 0 | 0 | Plant response rating, Sedge, Umbrella (Flood) [10]: 0; Plant response rating, Rice (Flood) (rice (Oryza sativa)): 0; Plant response rating, Barnyardgrass (Flood) [11]: 0; Plant response rating, Ducksalad (Flood) [12]: 0; Kochia plant response rating (0 to 100 scale) (kochia (Bassia scoparia) [13]; 31 g ai/ha): 0; Kochia plant response rating (0 to 100 scale) (kochia (Bassia scoparia) [13]; 125 g ai/ha): 0; Pigweed plant response rating (0 to 100 scale) ([14]; 31 g ai/ha): 0; Pigweed plant response rating (0 to 100 scale) ([14]; 125 g ai/ha): 40; Ragweed plant response rating (0 to 100 scale) ([15]; 31 g ai/ha): 0; Ragweed plant response rating (0 to 100 scale) ([15]; 125 g ai/ha): 30; Foxtail, Giant plant response rating (0 to 100 scale) ([16]; 31 g ai/ha): 0; Foxtail, Giant plant response rating (0 to 100 scale) ([16]; 125 g ai/ha): 10; Ryegrass, Italian plant response rating (0 to 100 scale) ([17]; 31 g ai/ha): 0; Ryegrass, Italian plant response rating (0 to 100 scale) ([17]; 125 g ai/ha): 30; Barnyardgrass plant response rating (0 to 100 scale) ([18]; 31 g ai/ha): 0; Barnyardgrass plant response rating (0 to 100 scale) ([18]; 125 g ai/ha): 0

From US20210045385A1, “PYRIDAZINONE-SUBSTITUTED KETOXIMES AS HERBICIDES” (FMC Corporation, priority 2018, published 2021)
